In US11993640B2, “Treating inflammatory lung disease” (United States Government as represented by the Department …, priority 2019, dated 2024):
Non-standard residues stand in square brackets, D forms with d. Residues, ends and D or L forms follow the SMILES beside them. *: point of attachment. Phe(F5) = N[C@@H](Cc1c(F)c(F)c(F)c(F)c1F)C(=O)O; hArg = N=C(N)NCCCC[C@H](N)C(=O)O; 12Ado = NCCCCCCCCCCCC(=O)O; Nle = CCCC[C@H](N)C(=O)O; Orn = NCCC[C@H](N)C(=O)O; Abu = CC[C@H](N)C(=O)O; PhAc = O=C(Cc1ccccc1)*

Legend:
OVCAR-3 xenograft = assay: Xenograft tumor growth in nude mice, ovarian cancer OVCAR-3; type: in vivo; conditions: Panel M, 9 weeks, 5 μg/day s.c.
Description: The peptides' activity was compared with GHRH antagonist MIA-602. All statistical analyzses were performed from comparing GHRA antagonists to non-treated tumor (control).
Peptides and chemicals. GHRH antagonists MIA-602 and AVR-GHRH antagonists (see Table 2 above) were synthesized by solid phase methods and purified by HPLC. The peptides were dissolved in DMSO and further diluted in 10% 1, 2-propanediol. The final concentration of peptides was 50 µg/ml in 10% 1, 2-propanediol containing 0.1% of DMSO.
(§1) Cell culture. Human cancer cell lines including pancreatic (PANC-1 and CFPAC-1), lung (HCC827 and H460), stomach (NCI-N87), prostate (PC3), brest (MX-1 and HCC-1806), colorectal (HT-29), and ovarian (SK-OV-3 and OVCAR-3) were obtained from the American Type Culture Collection (ATCC) and cultured at 37° C. in a humidified 95% air/5% CO2 atmosphere in the medium recommended by ATCC.
Xenograft models of human cancers in nude mice. Female athymic (NCr nu/nu) nude mice, 5-to 6-weeks-old, obtained from the Envigo labs (Tampa, FL), were housed in laminar airflow cabinets under pathogen-free conditions with a 12-h light/12-h dark schedule, and were fed autoclaved standard chow and water. To generate mice with xenografted tumors, tumor xenografts were initiated by subcutaneous (s.c.) injection of […] human cancer cells into female nude mice. After about 4 weeks the resulting tumors were dissected and collected after removing necrosis tissues. The tumors were then cut into particles with size of ˜3 mm3 and transplanted s.c. by trocar needle into experimental animals. When tumors grew to the size of 50-60 mm3 (by volume), mice were randomized into groups and treated daily for 4-8 weeks by subcutaneous administration of 5 μg of GHRH antagonists MIA-602 or AVR-compounds (2-10 μg as indicated), or vehicle solutions (0.1% DMSO in 10% 1, 2-propanediol) respectively. Tumor sizes were measured weekly.
Statistical analysis. One-way ANOVA followed by Bonferroni comparison were performed. Data are expressed as Mean±SEM. […]

OVCAR-3 cells = assay: In vitro cell viability, ovarian cancer OVCAR-3; type: cell-based, human; conditions: * at concentration of 2 μM for 72 h; Table 3B
Description: The inhibitory effects of the various synthesized GHRH antagonists were tested in cell proliferation assays in various human cancer cell lines including stomach cancer (KATOIII, N87), colon cancer (HT-29), urothelial cancer (J82, RT4), pancreatic cancer (PANC-1, CFPAC-1), prostatic cancer (PC3), breast cancer (MX-1, HCC1806), ovarian cancer (SK-OV-3, OVCAR-3) and lung cancer (HCC827, H460).
as §1, with “(NCI-N87 and KATOIII), urothelial (J82, RT4), prostatic” for “(NCI-N87), prostate”, “breast” for “brest”, “HCC 1806),” for “HCC-1806),”
In vitro cell viability. Cell viability was analyzed as follows: cancer cells including pancreatic (PANC-1 and CFPAC-1), lung (HCC827 and H460), stomach (NCI-N87 and KATOIII), urothelial (J82, RT4), prostatic (PC3) and breast (MX-1 and HCC 1806), colorectal (HT-29) and ovarian (SK-OV-3 and OVCAR-3) were grown on 96 well plates to ˜60% confluence, the cells were starved for 24 h in culture medium containing 0.5% FBS. […] Cell viability was measured using CellTiter 96 aqueous one solution kit (Promega). […]

## CCCC[C@H](NC(=O)[C@@H](NC(=O)[C@H](CC(=O)O)NC(=O)[C@H](CCC(N)=O)NC(=O)[C@H](CC(C)C)NC(=O)[C@H](CC(C)C)NC(=O)[C@H](CCCN)NC(=O)[C@H](Cc1c[nH]cn1)NC(=O)[C@H](C)NC(=O)[C@H](CO)NC(=O)[C@H](CC(C)C)NC(=O)[C@H](CCC(N)=O)NC(=O)[C@H](CC)NC(=O)[C@H](CC(C)C)NC(=O)[C@@H](NC(=O)[C@H](CCCN)NC(=O)[C@H](Cc1c[nH]cn1)NC(=O)[C@H](Cc1ccc(OC)cc1)NC(=O)[C@H](CCCCNC(=N)N)NC(=O)[C@H](C)NC(=O)[C@@H](NC(=O)[C@H](Cc1c(F)c(F)c(F)c(F)c1F)NC(=O)[C@@H](NC(=O)[C@H](C)NC(=O)[C@H](CC(=O)O)NC(=O)[C@@H](CCCNC(=N)N)NC(=O)[C@H](Cc1ccc(O)cc1)NC(=O)CCCCCCCCCCCNC(=O)Cc1ccccc1)[C@@H](C)CC)[C@@H](C)O)C(C)C)[C@@H](C)CC)C(=O)N[C@H](CCCNC(=N)N)C(=O)N[C@@H](CCCCNC(=N)N)C(N)=O [MIA-602, PhAC-Ada, Tyr D-Arg, Asp, Ala, Ile, 5FPhe, Thr, Ala, Har, Tyr(Me), His, Orn, Val, Leu, Abu, Gin, Leu, Ser, Ala, His, Orn, Leu, Leu, Gin, Asp, Ile, Nle, D-Arg, Har NH2, reference compound] ({PhAc-12Ado}-Y[dR]DAI[Phe(F5)]TA[hArg]Y(Me)H[Orn]VL[Abu]QLSAH[Orn]LLQDI[Nle][dR][hArg]-NH2)
OVCAR-3 xenograft
  Tumor Growth %: 267.2%
OVCAR-3 cells
  In vitro relative inhibitory potency in comparison to MIA-602, OVCAR-3: 1
